From paper PMC11995216, “End-to-End Backbone Cyclization Enhances Passive Permeability of bRo5 Oligomeric Depsipeptides with Nonlinear Size Dependence” (ACS Medicinal Chemistry Letters, 2025)
“And” between values parts separate entries of the source, which are not always exact repeats. Equal values may be shown once. Read-outs that look alike come from different tables or passages of the source. Starred links: 1 amine or outer side, 2 acyl side, 3 side chain; linkers in the order of their positions; H or OH if unused. Non-standard residues stand in square brackets, D forms with d. Residues, ends and D or L forms follow the SMILES beside them. *: point of attachment. X1 = CCCCC[C@H](O[*:1])C(=O)[*:2]; Ahp(2) = CCCCC[C@H](N)C(=O)O; dNMeA = CN[C@H](C)C(=O)O; OBn = c1ccc(CO*)cc1

What was measured:
[1] = UV detection
[2] = calculated using Supplement Equation 1, UV detection
in vitro = conditions: PAMPA, Papp
[3] = initial concentration 500 uM, UV detection
PAMPA [4] = conditions: initial concentration 500 uM
[5] = initial concentration 500 uM, UV detection; remark: listed apart in the source
[6] = PAMPA, 500 uM
PAMPA [7] = system: PAMPA
PAMPA [8] = conditions: UV detection
PAMPA [9] = conditions: calculated using Supplement Equation 1, UV detection
PAMPA [10] = conditions: initial concentration 500 uM, UV detection

## CCCCC[C@H](NC(=O)[C@@H](C)N(C)C(=O)OC(C)(C)C)C(=O)N(C)[C@H](C)C(=O)N[C@H](CCCCC)C(=O)N(C)[C@H](C)C(=O)O[C@@H](CCCCC)C(=O)N(C)[C@H](C)C(=O)O[C@@H](CCCCC)C(=O)OCc1ccccc1 (stereo in doubt) [Compound L2.2]
[1]; Well 1 / %R, Well 1
  % recovery: 95%
[1]; Well 2 / %R, Well 2
  % recovery: 91% and 89%
[1]; Well 3 / %R, Well 3
  % recovery: 91%
[1]; Well 4 / %R, Well 4
  % recovery: 98% and 90%
[1]; Well 5 / %R, Well 5
  % recovery: 89%
[2]; Well 1 / %T, Well 1
  %T: 0.34% and 0.4%
[2]; Well 2 / %T, Well 2
  %T: 0.4%
[2]; Well 3 / %T, Well 3
  %T: 0.36% and 0.39%
[2]; Well 4 / %T, Well 4
  %T: 0.36% and 0.38%
[2]; Well 5 / %T, Well 5
  %T: 0.38% and 0.4%
In vitro
  Papp at 500 uM: 2.79 ± 0.19 ×10⁻⁶ cm/s
[3]; Well 1 / [donor], Well 1
  donor concentration after incubation: 406 µM and 404 µM
[3]; Well 2 / [donor], Well 2
  donor concentration after incubation: 384 µM and 380 µM
[3]; Well 3 / [donor], Well 3
  donor concentration after incubation: 381 µM and 392 µM
[3]; Well 4 / [donor], Well 4
  donor concentration after incubation: 416 µM and 380 µM
[3]; Well 5 / [donor], Well 5
  donor concentration after incubation: 398 µM and 382 µM
PAMPA [4]; Acceptor Concentration (uM) / [row 1], UV detection
  Acceptor Concentration: 68.3 µM
PAMPA [4]; Acceptor Concentration (uM) / [row 2], UV detection
  Acceptor Concentration: 68.9 µM
PAMPA [4]; Acceptor Concentration (uM) / [row 3], UV detection
  Acceptor Concentration: 76.7 µM
PAMPA [4]; Acceptor Concentration (uM) / [row 4], UV detection
  Acceptor Concentration: 75.8 µM
PAMPA [4]; Acceptor Concentration (uM) / [row 5], UV detection
  Acceptor Concentration: 62.9 µM
PAMPA [4]; Acceptor Concentration (uM) / [row 6], UV detection
  Acceptor Concentration: 70.1 µM
PAMPA [4]; Acceptor Concentration (uM) / [row 7], UV detection
  Acceptor Concentration: 66.3 µM
PAMPA [4]; Acceptor Concentration (uM) / [row 8], UV detection
  Acceptor Concentration: 62.1 µM
PAMPA [4]; Acceptor Concentration (uM) / [row 9], UV detection
  Acceptor Concentration: 69 µM
PAMPA [4]; Acceptor Concentration (uM) / [row 10], UV detection
  Acceptor Concentration: 63.9 µM
[5]; Well 1 / [acc], Well 1
  acceptor concentration after incubation: 70.2 µM
[6]
  LogPapp: -5.55 ± 0.03
  Δ % diffusion: ↑17%
PAMPA [7]; Papp (x 10^-6 cm/s) / [row 1], UV detection
  Papp: 2.7 ×10⁻⁶ cm/s
PAMPA [7]; Papp (x 10^-6 cm/s) / [row 2], UV detection
  Papp: 2.86 ×10⁻⁶ cm/s
PAMPA [7]; Papp (x 10^-6 cm/s) / [row 3], UV detection
  Papp: 3.2 ×10⁻⁶ cm/s
PAMPA [7]; Papp (x 10^-6 cm/s) / [row 4], UV detection
  Papp: 2.91 ×10⁻⁶ cm/s
PAMPA [7]; Papp (x 10^-6 cm/s) / [row 5], UV detection
  Papp: 2.54 ×10⁻⁶ cm/s
PAMPA [7]; Papp (x 10^-6 cm/s) / [row 6], UV detection
  Papp: 2.78 ×10⁻⁶ cm/s
PAMPA [7]; Papp (x 10^-6 cm/s) / [row 7], UV detection
  Papp: 2.8 ×10⁻⁶ cm/s
PAMPA [7]; Papp (x 10^-6 cm/s) / [row 8], UV detection
  Papp: 2.55 ×10⁻⁶ cm/s
PAMPA [7]; Papp (x 10^-6 cm/s) / [row 9], UV detection
  Papp: 2.9 ×10⁻⁶ cm/s
PAMPA [7]; Papp (x 10^-6 cm/s) / [row 10], UV detection
  Papp: 2.68 ×10⁻⁶ cm/s

## CCCCC[C@@H]1OC(=O)[C@@H](C)N(C)C(=O)[C@H](CCCCC)OC(=O)[C@@H](C)N(C)C1=O [Compound C1.2]
PAMPA [8]; Well 1 / %R, Well 1
  % recovery: 90%
PAMPA [8]; Well 2 / %R, Well 2
  % recovery: 90% and 92%
PAMPA [8]; Well 3 / %R, Well 3
  % recovery: 93% and 90%
PAMPA [8]; Well 4 / %R, Well 4
  % recovery: 92%
PAMPA [8]; Well 5 / %R, Well 5
  % recovery: 88% and 89%
PAMPA [9]; Well 1 / %T, Well 1
  %T: 0.56% and 0.55%
PAMPA [9]; Well 2 / %T, Well 2
  %T: 0.58% and 0.6%
PAMPA [9]; Well 3 / %T, Well 3
  %T: 0.6% and 0.62%
PAMPA [9]; Well 4 / %T, Well 4
  %T: 0.6% and 0.61%
PAMPA [9]; Well 5 / %T, Well 5
  %T: 0.59% and 0.57%
In vitro
  Papp at 500 uM: 5.05 ± 0.33 ×10⁻⁶ cm/s
In vitro; Ave
  Papp at 500 uM: 4.78 ×10⁻⁶ cm/s
PAMPA [10]; Well 1 / [donor], Well 1
  donor concentration after incubation: 356 µM
PAMPA [10]; Well 2 / [donor], Well 2
  donor concentration after incubation: 347 µM and 350 µM
PAMPA [10]; Well 3 / [donor], Well 3
  donor concentration after incubation: 356 µM and 338 µM
PAMPA [10]; Well 4 / [donor], Well 4
  donor concentration after incubation: 346 µM
PAMPA [10]; Well 5 / [donor], Well 5
  donor concentration after incubation: 339 µM and 346 µM
PAMPA [4]; Acceptor Concentration (uM) – ELSD Detection / [row 1], ELSD Detection
  Acceptor Concentration: 94.8 µM
PAMPA [4]; Acceptor Concentration (uM) – ELSD Detection / [row 2], ELSD Detection
  Acceptor Concentration: 98.9 µM
PAMPA [4]; Acceptor Concentration (uM) – ELSD Detection / [row 3], ELSD Detection
  Acceptor Concentration: 102 µM
PAMPA [4]; Acceptor Concentration (uM) – ELSD Detection / [row 4], ELSD Detection
  Acceptor Concentration: 107 µM
PAMPA [4]; Acceptor Concentration (uM) – ELSD Detection / [row 5], ELSD Detection
  Acceptor Concentration: 98.1 µM
PAMPA [4]; Acceptor Concentration (uM) – ELSD Detection / [row 6], ELSD Detection
  Acceptor Concentration: 113 µM
PAMPA [4]; Acceptor Concentration (uM) – ELSD Detection / [row 7], ELSD Detection
  Acceptor Concentration: 118 µM
PAMPA [4]; Acceptor Concentration (uM) – ELSD Detection / [row 8], ELSD Detection
  Acceptor Concentration: 122 µM
PAMPA [4]; Acceptor Concentration (uM) – ELSD Detection / [row 9], ELSD Detection
  Acceptor Concentration: 113 µM
PAMPA [4]; Acceptor Concentration (uM) – ELSD Detection / [row 10], ELSD Detection
  Acceptor Concentration: 109 µM
PAMPA [4]; Acceptor Concentration (uM) – UV Detection / [row 1], UV Detection
  Acceptor Concentration: 98.5 µM
PAMPA [4]; Acceptor Concentration (uM) – UV Detection / [row 2], UV Detection
  Acceptor Concentration: 103 µM
PAMPA [4]; Acceptor Concentration (uM) – UV Detection / [row 3], UV Detection
  Acceptor Concentration: 111 µM
PAMPA [4]; Acceptor Concentration (uM) – UV Detection / [row 4], UV Detection
  Acceptor Concentration: 108 µM
PAMPA [4]; Acceptor Concentration (uM) – UV Detection / [row 5], UV Detection
  Acceptor Concentration: 103 µM
PAMPA [4]; Acceptor Concentration (uM) – UV Detection / [row 6], UV Detection
  Acceptor Concentration: 95 µM
PAMPA [4]; Acceptor Concentration (uM) – UV Detection / [row 7], UV Detection
  Acceptor Concentration: 109 µM
PAMPA [4]; Acceptor Concentration (uM) – UV Detection / [row 8], UV Detection
  Acceptor Concentration: 114 µM
PAMPA [4]; Acceptor Concentration (uM) – UV Detection / [row 9], UV Detection
  Acceptor Concentration: 114 µM
[6]
  LogPapp: -5.30 ± 0.03
  Δ % diffusion: ↑5%
PAMPA [7]; Papp (x 10^-6 cm/s) – ELSD Detection / [row 1], ELSD Detection
  Papp: 4.36 ×10⁻⁶ cm/s
PAMPA [7]; Papp (x 10^-6 cm/s) – ELSD Detection / [row 2], ELSD Detection
  Papp: 4.48 ×10⁻⁶ cm/s
PAMPA [7]; Papp (x 10^-6 cm/s) – ELSD Detection / [row 3], ELSD Detection
  Papp: 4.72 ×10⁻⁶ cm/s
PAMPA [7]; Papp (x 10^-6 cm/s) – ELSD Detection / [row 4], ELSD Detection
  Papp: 4.83 ×10⁻⁶ cm/s
PAMPA [7]; Papp (x 10^-6 cm/s) – ELSD Detection / [row 5], ELSD Detection
  Papp: 4.34 ×10⁻⁶ cm/s
PAMPA [7]; Papp (x 10^-6 cm/s) – ELSD Detection / [row 6], ELSD Detection
  Papp: 4.86 ×10⁻⁶ cm/s
PAMPA [7]; Papp (x 10^-6 cm/s) – ELSD Detection / [row 7], ELSD Detection
  Papp: 4.88 ×10⁻⁶ cm/s
PAMPA [7]; Papp (x 10^-6 cm/s) – ELSD Detection / [row 8], ELSD Detection
  Papp: 5.23 ×10⁻⁶ cm/s
PAMPA [7]; Papp (x 10^-6 cm/s) – ELSD Detection / [row 9], ELSD Detection
  Papp: 5.23 ×10⁻⁶ cm/s
PAMPA [7]; Papp (x 10^-6 cm/s) – ELSD Detection / [row 10], ELSD Detection
  Papp: 4.89 ×10⁻⁶ cm/s
PAMPA [7]; Papp (x 10^-6 cm/s) – UV Detection / [row 1], UV Detection
  Papp: 4.63 ×10⁻⁶ cm/s
PAMPA [7]; Papp (x 10^-6 cm/s) – UV Detection / [row 2], UV Detection
  Papp: 4.93 ×10⁻⁶ cm/s
PAMPA [7]; Papp (x 10^-6 cm/s) – UV Detection / [row 3], UV Detection
  Papp: 5.16 ×10⁻⁶ cm/s
PAMPA [7]; Papp (x 10^-6 cm/s) – UV Detection / [row 4], UV Detection
  Papp: 5.2 ×10⁻⁶ cm/s
PAMPA [7]; Papp (x 10^-6 cm/s) – UV Detection / [row 6], UV Detection
  Papp: 4.49 ×10⁻⁶ cm/s
PAMPA [7]; Papp (x 10^-6 cm/s) – UV Detection / [row 7], UV Detection
  Papp: 5.18 ×10⁻⁶ cm/s
PAMPA [7]; Papp (x 10^-6 cm/s) – UV Detection / [row 8], UV Detection
  Papp: 5.55 ×10⁻⁶ cm/s
PAMPA [7]; Papp (x 10^-6 cm/s) – UV Detection / [row 9], UV Detection
  Papp: 5.44 ×10⁻⁶ cm/s
PAMPA [7]; Papp (x 10^-6 cm/s) – UV Detection / [row 10], UV Detection
  Papp: 4.87 ×10⁻⁶ cm/s

## CCCCC[C@H](NC(=O)[C@@H](C)N(C)C(=O)[C@H](CCCCC)NC(=O)[C@@H](C)N(C)C(=O)[C@H](CCCCC)NC(=O)[C@@H](C)N(C)C(=O)[C@H](CCCCC)OC(=O)[C@@H](C)NC)C(=O)OCc1ccccc1 (H-[dNMeA][X1][dNMeA][Ahp(2)][dNMeA][Ahp(2)][dNMeA][Ahp(2)]-OBn)
[1]; Well 1 / %R, Well 1
  % recovery: 91% and 92%
[1]; Well 2 / %R, Well 2
  % recovery: 87% and 92%
[1]; Well 3 / %R, Well 3
  % recovery: 90%
[1]; Well 4 / %R, Well 4
  % recovery: 88% and 86%
[1]; Well 5 / %R, Well 5
  % recovery: 87% and 88%
[2]; Well 1 / %T, Well 1
  %T: 0.52% and 0.53%
[2]; Well 2 / %T, Well 2
  %T: 0.54%
[2]; Well 3 / %T, Well 3
  %T: 0.53% and 0.5%
[2]; Well 4 / %T, Well 4
  %T: 0.5% and 0.52%
[2]; Well 5 / %T, Well 5
  %T: 0.53% and 0.52%
[3]; Well 1 / [donor], Well 1
  donor concentration after incubation: 396 µM and 397 µM
[3]; Well 2 / [donor], Well 2
  donor concentration after incubation: 375 µM and 395 µM
[3]; Well 3 / [donor], Well 3
  donor concentration after incubation: 387 µM and 374 µM
[3]; Well 4 / [donor], Well 4
  donor concentration after incubation: 382 µM and 368 µM
[3]; Well 5 / [donor], Well 5
  donor concentration after incubation: 376 µM and 377 µM
[5]; Well 1 / [acc], Well 1
  acceptor concentration after incubation: 56 µM and 61.7 µM
[5]; Well 2 / [acc], Well 2
  acceptor concentration after incubation: 58.6 µM and 63.1 µM
[5]; Well 3 / [acc], Well 3
  acceptor concentration after incubation: 59.5 µM and 60.4 µM
[5]; Well 4 / [acc], Well 4
  acceptor concentration after incubation: 58.3 µM and 60.3 µM
[5]; Well 5 / [acc], Well 5
  acceptor concentration after incubation: 60.6 µM and 61.4 µM
